This is an account of results in ChEMBL document CHEMBL1152560, “Substituted 2-arylbenzothiazoles as kinase inhibitors: hit-to-lead optimization” (Bioorg Med Chem, 2009).

Assay [1] concerns the target Eukaryotic translation initiation factor 2-alpha kinase 1 (Homo sapiens) (UniProt Q9BQI3). The assay is described as follows: Residual activity of HRI at 1 uM by microplate scintillation counting.
Assay [2] addresses Tyrosine-protein kinase JAK2 (Homo sapiens) (UniProt O60674). The assay is described as follows: Residual activity of JAK2 at 10 uM by microplate scintillation counting.
Assay [3] deals with T1, Beta-adrenergic receptor kinase 1 (Homo sapiens) (UniProt P25098).
T1 sequence (whole entry): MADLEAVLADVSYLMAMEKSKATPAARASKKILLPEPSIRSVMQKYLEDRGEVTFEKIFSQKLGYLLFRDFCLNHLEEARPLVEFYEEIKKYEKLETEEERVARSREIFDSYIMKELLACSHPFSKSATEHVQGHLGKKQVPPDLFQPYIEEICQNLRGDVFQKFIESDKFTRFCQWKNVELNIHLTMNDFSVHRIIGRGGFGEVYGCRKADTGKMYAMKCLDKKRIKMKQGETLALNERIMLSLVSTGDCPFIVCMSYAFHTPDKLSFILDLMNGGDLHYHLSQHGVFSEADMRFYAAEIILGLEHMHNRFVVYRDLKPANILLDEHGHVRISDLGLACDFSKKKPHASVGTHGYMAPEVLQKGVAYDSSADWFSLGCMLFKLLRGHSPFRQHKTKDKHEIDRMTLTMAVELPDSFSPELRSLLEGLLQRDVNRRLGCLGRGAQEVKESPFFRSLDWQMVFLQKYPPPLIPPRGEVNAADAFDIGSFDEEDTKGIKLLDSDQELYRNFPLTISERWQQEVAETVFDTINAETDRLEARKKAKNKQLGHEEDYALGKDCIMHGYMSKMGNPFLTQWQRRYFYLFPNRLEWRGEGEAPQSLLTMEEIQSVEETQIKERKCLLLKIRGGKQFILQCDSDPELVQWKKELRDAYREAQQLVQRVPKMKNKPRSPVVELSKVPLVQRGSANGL
The experiment in a line: Residual activity of GRK2 at 10 uM by microplate scintillation counting.

For assay [4], the target named is CDK8/Cyclin C (Homo sapiens) (UniProt P49336+P24863). The experiment in a line: Residual activity of CDK8/Cyclin C at 0.1 uM by microplate scintillation counting. The assay is classed as protein-complex assay.
Assay [5] addresses Activin receptor type-1-like (Homo sapiens) (UniProt P37023). The assay is described as follows: Residual activity of ACV-RL1 at 10 uM by microplate scintillation counting.
Assay [6] addresses Fibroblast growth factor receptor 1 (Homo sapiens) (UniProt P11362). The assay is described as follows: Residual activity of wild type FGF-R1 at 1 uM by microplate scintillation counting.
Assay [7] deals with Receptor-interacting serine/threonine-protein kinase 2 (Homo sapiens) (UniProt O43353). The experiment in a line: Residual activity of RIPK2 at 0.1 uM by microplate scintillation counting.
Sequence of Receptor-interacting serine/threonine-protein kinase 2 (Homo sapiens) (O43353 whole entry): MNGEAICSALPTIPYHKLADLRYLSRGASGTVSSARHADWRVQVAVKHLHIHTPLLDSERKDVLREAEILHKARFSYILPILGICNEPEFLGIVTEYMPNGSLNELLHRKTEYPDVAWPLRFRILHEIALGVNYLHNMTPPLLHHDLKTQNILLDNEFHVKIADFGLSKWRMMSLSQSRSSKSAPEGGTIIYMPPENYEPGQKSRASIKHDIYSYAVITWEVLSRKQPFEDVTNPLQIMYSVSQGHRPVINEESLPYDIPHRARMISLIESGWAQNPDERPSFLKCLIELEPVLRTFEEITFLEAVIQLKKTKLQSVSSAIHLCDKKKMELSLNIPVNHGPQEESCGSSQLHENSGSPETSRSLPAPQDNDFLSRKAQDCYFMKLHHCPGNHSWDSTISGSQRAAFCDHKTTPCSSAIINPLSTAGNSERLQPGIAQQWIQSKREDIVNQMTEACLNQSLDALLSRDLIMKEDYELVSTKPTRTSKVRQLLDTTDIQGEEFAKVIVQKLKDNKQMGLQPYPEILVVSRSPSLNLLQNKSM
Assay [8] deals with T2, Serine/threonine-protein kinase Nek3 (Homo sapiens) (UniProt P51956).
T2 sequence (whole entry): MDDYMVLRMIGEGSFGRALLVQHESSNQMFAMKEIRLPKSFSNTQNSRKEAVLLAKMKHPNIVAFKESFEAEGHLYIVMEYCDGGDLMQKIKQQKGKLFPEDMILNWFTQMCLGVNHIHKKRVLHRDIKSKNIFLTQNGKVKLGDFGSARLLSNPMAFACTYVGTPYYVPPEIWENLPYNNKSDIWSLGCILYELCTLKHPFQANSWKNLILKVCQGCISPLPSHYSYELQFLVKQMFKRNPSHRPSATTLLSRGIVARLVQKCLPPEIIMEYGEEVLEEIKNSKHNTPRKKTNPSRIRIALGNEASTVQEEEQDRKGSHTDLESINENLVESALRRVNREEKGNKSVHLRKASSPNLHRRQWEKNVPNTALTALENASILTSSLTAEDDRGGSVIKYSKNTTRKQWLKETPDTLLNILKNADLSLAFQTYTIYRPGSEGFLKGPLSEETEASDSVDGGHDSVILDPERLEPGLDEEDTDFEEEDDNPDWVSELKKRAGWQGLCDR
The experiment in a line: Residual activity of NEK3 at 10 uM by microplate scintillation counting.

The target in assay [9] is Tyrosine-protein kinase CSK (Homo sapiens) (UniProt P41240). The assay is described as follows: Residual activity of CSK at 1 uM by microplate scintillation counting.
Sequence of Tyrosine-protein kinase CSK (Homo sapiens) (P41240 2-450 limits assumed): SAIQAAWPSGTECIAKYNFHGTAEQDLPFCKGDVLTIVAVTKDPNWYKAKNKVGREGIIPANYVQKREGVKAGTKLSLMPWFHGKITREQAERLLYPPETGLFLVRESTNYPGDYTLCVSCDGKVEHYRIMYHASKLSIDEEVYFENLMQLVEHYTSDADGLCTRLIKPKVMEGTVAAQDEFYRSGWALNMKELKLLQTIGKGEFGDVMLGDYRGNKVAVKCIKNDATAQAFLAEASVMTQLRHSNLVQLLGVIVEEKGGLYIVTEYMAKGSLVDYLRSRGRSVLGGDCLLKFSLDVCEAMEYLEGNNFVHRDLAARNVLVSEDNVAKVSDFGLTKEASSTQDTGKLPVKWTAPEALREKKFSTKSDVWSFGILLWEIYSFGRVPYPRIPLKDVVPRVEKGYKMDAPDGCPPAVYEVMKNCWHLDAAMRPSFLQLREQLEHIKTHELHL
Assay [10] concerns the target Ribosomal protein S6 kinase alpha-4 (Homo sapiens) (UniProt O75676). The experiment in a line: Residual activity of RPS6KA4 at 1 uM by microplate scintillation counting.
The target in assay [11] is Protein kinase C beta type (Homo sapiens) (UniProt P05771). The assay is described as follows: Residual activity of PKCbeta1 at 10 uM by microplate scintillation counting.
Sequence of Protein kinase C beta type (Homo sapiens) (P05771 2-671 limits assumed): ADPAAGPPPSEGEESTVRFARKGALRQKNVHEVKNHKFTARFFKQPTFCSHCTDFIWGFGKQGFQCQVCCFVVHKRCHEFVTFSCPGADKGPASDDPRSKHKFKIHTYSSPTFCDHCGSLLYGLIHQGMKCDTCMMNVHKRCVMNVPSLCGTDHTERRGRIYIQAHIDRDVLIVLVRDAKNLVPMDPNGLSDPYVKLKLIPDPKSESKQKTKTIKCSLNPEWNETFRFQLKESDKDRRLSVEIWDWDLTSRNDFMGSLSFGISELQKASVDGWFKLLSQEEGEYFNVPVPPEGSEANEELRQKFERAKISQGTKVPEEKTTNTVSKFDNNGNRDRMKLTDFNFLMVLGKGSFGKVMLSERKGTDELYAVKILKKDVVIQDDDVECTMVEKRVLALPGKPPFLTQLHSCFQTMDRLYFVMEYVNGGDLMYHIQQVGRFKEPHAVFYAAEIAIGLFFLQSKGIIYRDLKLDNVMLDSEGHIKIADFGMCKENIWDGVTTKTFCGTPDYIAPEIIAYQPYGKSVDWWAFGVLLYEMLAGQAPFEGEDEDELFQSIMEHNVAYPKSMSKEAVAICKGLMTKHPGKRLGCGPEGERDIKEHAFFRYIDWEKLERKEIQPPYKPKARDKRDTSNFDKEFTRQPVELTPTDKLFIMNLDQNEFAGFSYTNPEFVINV
For assay [12], the target named is T3, Eukaryotic translation initiation factor 2-alpha kinase 3 (Homo sapiens) (UniProt Q9NZJ5).
T3 sequence (whole entry): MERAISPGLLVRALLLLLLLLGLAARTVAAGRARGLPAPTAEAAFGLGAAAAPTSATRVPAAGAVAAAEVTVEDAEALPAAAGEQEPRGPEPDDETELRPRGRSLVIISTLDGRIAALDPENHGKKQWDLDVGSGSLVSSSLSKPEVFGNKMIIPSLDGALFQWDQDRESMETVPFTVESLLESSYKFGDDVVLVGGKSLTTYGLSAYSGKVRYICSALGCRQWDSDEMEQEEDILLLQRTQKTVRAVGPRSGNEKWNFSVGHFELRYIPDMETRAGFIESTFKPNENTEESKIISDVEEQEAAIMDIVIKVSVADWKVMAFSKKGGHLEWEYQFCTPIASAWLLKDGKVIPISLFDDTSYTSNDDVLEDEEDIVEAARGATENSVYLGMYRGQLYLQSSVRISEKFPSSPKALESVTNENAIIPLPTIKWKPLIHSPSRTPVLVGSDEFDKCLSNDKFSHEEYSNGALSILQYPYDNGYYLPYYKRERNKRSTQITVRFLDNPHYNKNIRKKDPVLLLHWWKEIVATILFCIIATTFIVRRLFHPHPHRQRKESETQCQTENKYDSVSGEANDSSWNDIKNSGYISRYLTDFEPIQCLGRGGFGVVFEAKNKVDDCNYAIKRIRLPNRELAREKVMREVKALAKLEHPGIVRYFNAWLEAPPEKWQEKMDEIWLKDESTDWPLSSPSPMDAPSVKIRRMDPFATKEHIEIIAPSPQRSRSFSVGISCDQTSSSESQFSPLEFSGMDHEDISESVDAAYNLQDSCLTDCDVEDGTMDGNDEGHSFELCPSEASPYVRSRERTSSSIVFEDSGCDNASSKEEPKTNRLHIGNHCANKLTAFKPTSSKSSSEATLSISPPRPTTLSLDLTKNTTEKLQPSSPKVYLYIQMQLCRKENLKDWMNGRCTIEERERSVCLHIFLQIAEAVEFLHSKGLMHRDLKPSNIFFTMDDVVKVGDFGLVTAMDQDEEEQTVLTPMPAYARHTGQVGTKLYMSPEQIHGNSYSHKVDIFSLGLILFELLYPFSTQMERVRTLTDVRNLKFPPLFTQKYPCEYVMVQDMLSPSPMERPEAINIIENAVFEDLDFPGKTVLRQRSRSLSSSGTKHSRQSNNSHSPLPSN
The assay is described as follows: Residual activity of EIF2AK3 at 10 uM by microplate scintillation counting.

The term residual activity denotes the signal under treatment as a percentage of the control signal.

Sequence of Eukaryotic translation initiation factor 2-alpha kinase 1 (Homo sapiens) (Q9BQI3 whole entry): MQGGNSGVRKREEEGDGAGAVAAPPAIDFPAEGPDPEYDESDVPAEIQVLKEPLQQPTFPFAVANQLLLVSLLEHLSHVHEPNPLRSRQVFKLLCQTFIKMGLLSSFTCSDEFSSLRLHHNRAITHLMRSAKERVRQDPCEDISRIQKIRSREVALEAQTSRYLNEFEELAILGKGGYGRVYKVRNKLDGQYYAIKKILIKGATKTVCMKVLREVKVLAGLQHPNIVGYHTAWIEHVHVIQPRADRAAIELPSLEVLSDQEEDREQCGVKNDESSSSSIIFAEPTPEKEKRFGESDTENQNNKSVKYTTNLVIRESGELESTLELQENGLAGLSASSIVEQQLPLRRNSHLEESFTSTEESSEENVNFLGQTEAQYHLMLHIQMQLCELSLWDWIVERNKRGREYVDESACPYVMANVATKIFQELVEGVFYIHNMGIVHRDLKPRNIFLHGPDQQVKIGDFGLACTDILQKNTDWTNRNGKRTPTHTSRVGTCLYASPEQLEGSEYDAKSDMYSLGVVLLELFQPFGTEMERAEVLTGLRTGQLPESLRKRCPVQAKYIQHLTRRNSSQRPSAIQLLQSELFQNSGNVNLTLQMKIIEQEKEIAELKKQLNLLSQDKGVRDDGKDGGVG
Sequence of Activin receptor type-1-like (Homo sapiens) (P37023 whole entry): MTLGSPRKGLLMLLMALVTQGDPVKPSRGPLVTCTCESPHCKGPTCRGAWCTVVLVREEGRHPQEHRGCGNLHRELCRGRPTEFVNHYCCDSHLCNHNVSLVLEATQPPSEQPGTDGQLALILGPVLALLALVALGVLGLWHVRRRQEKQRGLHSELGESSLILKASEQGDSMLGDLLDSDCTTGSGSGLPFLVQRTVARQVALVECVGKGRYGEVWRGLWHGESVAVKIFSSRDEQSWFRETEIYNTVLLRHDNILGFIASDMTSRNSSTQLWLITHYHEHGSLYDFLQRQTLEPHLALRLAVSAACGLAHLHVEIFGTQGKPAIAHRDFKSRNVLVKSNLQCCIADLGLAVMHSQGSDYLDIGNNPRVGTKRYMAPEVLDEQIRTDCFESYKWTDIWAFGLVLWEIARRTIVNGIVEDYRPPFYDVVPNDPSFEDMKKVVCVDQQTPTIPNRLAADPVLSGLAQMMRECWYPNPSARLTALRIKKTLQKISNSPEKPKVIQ
Sequence of Ribosomal protein S6 kinase alpha-4 (Homo sapiens) (O75676 whole entry, looked up): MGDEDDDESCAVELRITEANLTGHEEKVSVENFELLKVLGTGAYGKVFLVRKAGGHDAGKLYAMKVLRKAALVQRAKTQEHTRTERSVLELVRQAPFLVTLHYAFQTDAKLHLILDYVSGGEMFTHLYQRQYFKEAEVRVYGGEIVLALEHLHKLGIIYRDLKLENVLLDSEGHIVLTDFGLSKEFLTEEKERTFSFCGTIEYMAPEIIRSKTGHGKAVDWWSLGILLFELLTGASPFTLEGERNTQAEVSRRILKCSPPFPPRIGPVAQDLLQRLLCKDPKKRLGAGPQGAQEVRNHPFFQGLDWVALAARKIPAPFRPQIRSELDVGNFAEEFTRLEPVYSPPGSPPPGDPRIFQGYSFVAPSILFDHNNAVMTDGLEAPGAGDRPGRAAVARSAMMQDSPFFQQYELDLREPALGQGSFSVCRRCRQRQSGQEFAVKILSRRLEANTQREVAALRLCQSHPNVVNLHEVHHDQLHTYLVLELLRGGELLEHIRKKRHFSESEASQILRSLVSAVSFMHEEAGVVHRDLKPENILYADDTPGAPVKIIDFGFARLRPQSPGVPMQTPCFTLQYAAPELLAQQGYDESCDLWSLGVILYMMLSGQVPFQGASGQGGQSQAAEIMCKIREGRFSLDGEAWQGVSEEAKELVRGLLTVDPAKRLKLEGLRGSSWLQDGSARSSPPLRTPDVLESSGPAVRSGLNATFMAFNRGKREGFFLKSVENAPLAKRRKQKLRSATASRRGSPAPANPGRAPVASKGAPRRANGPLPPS
Sequence of Tyrosine-protein kinase JAK2 (Homo sapiens) (O60674 whole entry): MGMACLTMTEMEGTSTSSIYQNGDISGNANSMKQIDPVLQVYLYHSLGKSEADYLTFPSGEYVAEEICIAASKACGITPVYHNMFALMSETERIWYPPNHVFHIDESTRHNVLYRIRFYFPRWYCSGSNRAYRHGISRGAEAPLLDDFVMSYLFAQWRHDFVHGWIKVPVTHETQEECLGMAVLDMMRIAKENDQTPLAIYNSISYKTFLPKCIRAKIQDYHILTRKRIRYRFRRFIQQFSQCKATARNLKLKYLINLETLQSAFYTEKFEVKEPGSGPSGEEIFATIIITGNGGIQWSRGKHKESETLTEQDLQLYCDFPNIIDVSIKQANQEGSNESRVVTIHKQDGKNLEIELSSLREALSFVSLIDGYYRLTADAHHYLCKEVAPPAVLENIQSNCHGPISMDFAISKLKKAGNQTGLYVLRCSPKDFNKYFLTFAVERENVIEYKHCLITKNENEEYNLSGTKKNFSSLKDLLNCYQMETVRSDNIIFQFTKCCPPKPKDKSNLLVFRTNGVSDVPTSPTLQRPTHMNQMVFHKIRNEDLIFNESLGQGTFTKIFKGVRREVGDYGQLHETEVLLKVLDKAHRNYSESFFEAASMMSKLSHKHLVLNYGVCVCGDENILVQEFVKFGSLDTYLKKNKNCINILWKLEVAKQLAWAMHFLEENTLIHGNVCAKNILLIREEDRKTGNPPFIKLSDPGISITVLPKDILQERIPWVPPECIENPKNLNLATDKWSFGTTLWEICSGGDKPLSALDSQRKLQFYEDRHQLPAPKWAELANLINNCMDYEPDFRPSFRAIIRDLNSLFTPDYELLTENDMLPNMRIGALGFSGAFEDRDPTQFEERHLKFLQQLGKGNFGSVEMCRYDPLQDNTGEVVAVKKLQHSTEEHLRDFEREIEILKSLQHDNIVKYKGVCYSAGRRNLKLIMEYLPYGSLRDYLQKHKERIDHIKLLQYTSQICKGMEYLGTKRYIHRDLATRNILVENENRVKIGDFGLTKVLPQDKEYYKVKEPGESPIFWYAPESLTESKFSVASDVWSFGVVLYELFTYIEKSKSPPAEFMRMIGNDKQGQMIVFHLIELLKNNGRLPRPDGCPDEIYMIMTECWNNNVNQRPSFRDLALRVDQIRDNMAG

`COc1cc2c(Oc3ccc(-c4nc5ccccc5s4)cc3)ncnc2cc1OCCCN1CCCC1`: the residual activity in assay [1] worked out at 108%; in assay [2], 67%; in assay [3], 73%; in assay [4], 94%; in assay [5], 87%; in [6], 126%. Further, the residual activity in assay [7] turned out to be 79%; in [8] it was 154%; in assay [9] it was 97%; in assay [10], 86%; in [11], 73%; in assay [12] it was 239%.

For `COc1cc2c(Oc3ccc(-c4nc5ccccc5s4)cc3F)ncnc2cc1OCCCN1CCN(C)CC1`, the residual activity in assay [1] is 87%; in [2], 60%; in assay [3] it was 53%; in [4], 79%; in assay [5], 91%; in assay [6], 115%. The residual activity in assay [7] is 72%; in [8], 132%; in assay [9] it was 76%; in assay [10], 87%; in [11], 57%; in assay [12] it was 155%.

For the compound `COc1cc2c(Oc3ccc(-c4nc5ccccc5s4)cc3)ncnc2cc1OCCCN1CCN(C)CC1`, the residual activity in [1] was determined as 108%; in assay [2] it was 67%; in assay [3] it was 58%; in assay [4], 87%; in assay [5] it was 84%; in [6], 123%. The residual activity came to 78% in [7]; 145% in [8]; 82% in assay [9]; 86% in [10]; 81% in assay [11]; 256% in [12].
